Some test systems named below: MDA-N; RXF-631 renal; DLD-1 colon; SNB-78 CNS; LXFL 529 NSCLC; KM20L2 colon; XF 498 CNS; DMS 273 small cell lung; HOP-18 NSCLC; SN12K1 renal.
Holding throughout (test): inhibition of tumour cell growth, NCI panel, 48 h

Values joined by “and” are separate entries in the source; they are usually repeats but may differ in a detail not shown here. Equal entries are not always repeated.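 Step 1: Grow cells in 96-well plates. Step 2: Expose to compound for 48 hours at 5 concentrations. Step 3: Interpolate endpoints linearly; if unreached, use highest concentration. Here, GI50 denotes the concentration required for 50% inhibition of growth. TGI marks complete inhibition of growth.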

As to `NCCN1C(=O)c2ccccc2C1(O)c1ccc(Cl)cc1` (configuration not stated), in the experiment with MDA-N, the TGI turned out to be 32.7 µM.

`Cc1ccc(C)c2c(N=Nc3ccccc3[N+](=O)[O-])c(O)[nH]c12` came in with a TGI in the experiment with MDA-N above 100 µM.

Consider `O=C(CC1C(=O)Nc2ccccc2S1(=O)=O)Nc1cccc(Cl)c1` (configuration not stated), for which the TGI in the experiment with RXF-631 renal was 45.3 µM; with DLD-1 colon, 32.7 µM; in the experiment on SNB-78 CNS, above 100 µM; in the experiment on LXFL 529 NSCLC it was 38.3 µM; with KM20L2 colon, 42.3 µM; in the experiment with XF 498 CNS, 41.5 µM. Further, the TGI in the experiment on DMS 273 small cell lung was 29.4 µM.

`Cc1cc(NS(=O)(=O)c2ccc(Nc3c4ccccc4nc4c(C(=O)Nc5ccc(S(=O)(=O)N=C(N)N)cc5)ccc(Cl)c34)cc2)no1`: the TGI is above 100 µM in the experiment with DLD-1 colon; 97.7 µM with SNB-78 CNS; above 100 µM in the experiment on LXFL 529 NSCLC; above 100 µM in the experiment on KM20L2 colon; above 100 µM in the experiment with HOP-18 NSCLC; 90.9 µM in the experiment with XF 498 CNS. In the experiment on DMS 273 small cell lung, this molecule showed a TGI above 100 µM.

Take `COc1cc2ccc(CC(N)=O)cc2cc1OC`: the TGI in the experiment with RXF-631 renal, in the experiment on SNB-78 CNS, in the experiment on LXFL 529 NSCLC, with KM20L2 colon, in the experiment on HOP-18 NSCLC and in the experiment with XF 498 CNS was above 100 µM in each case. This molecule also returned a TGI in the experiment on DMS 273 small cell lung above 100 µM.

Regarding `Cc1cc2c(=O)[nH]c(N)nc2nc1C`, the TGI in the experiment on MDA-N was above 100 µM.

As for `Cc1cnc(SCCN2CCN(C)CC2)nc1-c1cc2ccccc2s1`, the TGI in the experiment on DLD-1 colon is 25.4 µM; in the experiment with SNB-78 CNS it was 32.5 µM; in the experiment on LXFL 529 NSCLC it was 27 µM; in the experiment on DMS 273 small cell lung, 18.1 µM.

With `CN1C(=O)C(=CN(C)c2ccccc2)C(=O)N(C)C1=O`, the TGI in the experiment on DLD-1 colon, in the experiment with SNB-78 CNS, with LXFL 529 NSCLC, in the experiment on KM20L2 colon, with HOP-18 NSCLC and with XF 498 CNS was above 100 µM in each case. The molecule further returned a TGI with DMS 273 small cell lung above 100 µM.

`CCCCCCCCCCCCCCNCC(OCC)OCC`: the TGI in the experiment with DLD-1 colon was 28.3 µM; with SNB-78 CNS it was 33.5 µM; in the experiment on LXFL 529 NSCLC, 29 µM; with KM20L2 colon it was 24.9 µM; in the experiment with HOP-18 NSCLC, 30.3 µM; in the experiment with XF 498 CNS, 27.4 µM.

Take `COC[C@@H](N=CN1CCc2cc(OC)c(OC)cc2C1)C(C)(C)C`: the TGI in the experiment with RXF-631 renal, with DLD-1 colon, with LXFL 529 NSCLC, with KM20L2 colon, in the experiment with HOP-18 NSCLC and in the experiment on XF 498 CNS was above 100 µM in each case.

Regarding `O=C1CCC2(c3ccccc3)Nc3ccc(Cl)cc3N12` (configuration not stated), the TGI with RXF-631 renal, in the experiment with DLD-1 colon, in the experiment on SNB-78 CNS, in the experiment on LXFL 529 NSCLC, in the experiment with KM20L2 colon and with XF 498 CNS was above 100 µM in each case.

Turning to `O=C1c2c(c3c4ccccc4[nH]c3c3[nH]c4ccccc4c23)C(=O)N1Cc1ccccc1`, the TGI in the experiment with RXF-631 renal amounted to 6.53 µM; with DLD-1 colon, 15.6 µM; with SNB-78 CNS, 9.63 µM; in the experiment on LXFL 529 NSCLC, 11.4 µM; in the experiment with KM20L2 colon, 8.57 µM; in the experiment with DMS 273 small cell lung it was 6.74 µM.

In the case of `O=S(=O)(NCCO)c1cc[c]([Sb](=[O])([OH])[OH])cc1`, in the experiment on MDA-N, the GI50 is above 100 µM and the TGI is above 100 µM.

`CC12CC(Sc3ccccc3N1)c1ccccc1O2` (configuration not stated): the TGI in the experiment on RXF-631 renal is 28.4 µM; with DLD-1 colon, 28.9 µM; with SNB-78 CNS, 42.6 µM; in the experiment with LXFL 529 NSCLC it was 28.4 µM; in the experiment with KM20L2 colon, 34.6 µM; in the experiment with HOP-18 NSCLC, 31.6 µM. Moreover, the TGI in the experiment on XF 498 CNS and in the experiment on DMS 273 small cell lung was 30.2 µM each time.

`CC(=O)NC1=C(Sc2ccc(Cl)cc2)C(=O)c2ccccc2C1=O` yielded a TGI in the experiment on MDA-N of 3.17 µM.

Molecule `C#CC(=O)OCC#CCOC(=O)C#C` returned a TGI with MDA-N above 100 µM.

In the case of `COc1cc2c(cc1O)C(c1cc(O)c(O)c(OC)c1)C(O)(C(=O)O)C(CO)C2O` (configuration not stated), the TGI in the experiment on MDA-N worked out at 30.9 µM.

`Nc1nc(-c2cc(-c3cccc4ccccc34)nc(N)n2)cc(-c2cccc3ccccc23)n1` registered a TGI in the experiment with MDA-N above 100 µM.

For `C/C=C1\CCC2c3[nH]c4ccccc4c3CCN2C1` (configuration not stated), the TGI in the experiment on DLD-1 colon, in the experiment with SNB-78 CNS, in the experiment with LXFL 529 NSCLC, in the experiment on KM20L2 colon, in the experiment with XF 498 CNS and in the experiment on DMS 273 small cell lung was above 100 µM throughout.

For the molecule `O=c1cc(O)c2c(O)cc(O)cc2o1`, the TGI in the experiment on MDA-N is above 100 µM.

`CC/C(CC(=O)CCC(=O)Nc1ccc(C)c(C)c1)=N\NC(=O)C(N)=O`: the TGI in the experiment on DLD-1 colon, in the experiment with SNB-78 CNS, with LXFL 529 NSCLC, with KM20L2 colon, with HOP-18 NSCLC and in the experiment on XF 498 CNS was above 100 µM in each case. Also, the TGI with DMS 273 small cell lung was above 100 µM.

Turning to `C[C@@](O)(/C=C/[C@H]1CC=CC(=O)O1)[C@@H](C[C@@H](O)\C=C/C=C\C=C\CO)OP(=O)(O)O`, the TGI was 95.9 µM with DLD-1 colon; 60.8 µM and > 58.8 µM in the experiment with SNB-78 CNS; 30.7 µM and 19.3 µM in the experiment on SN12K1 renal; 8.08 µM with MDA-N; 6.55 µM and 3.17 µM with KM20L2 colon; 28.5 µM and 127 µM in the experiment on HOP-18 NSCLC. Further, the TGI in the experiment on XF 498 CNS is 101 µM and 113 µM; with DMS 273 small cell lung it was 167 µM. Further, the GI50 in the experiment with SNB-78 CNS was 11.3 µM; in the experiment with SN12K1 renal it was 2.69 µM; in the experiment with KM20L2 colon, 1.32 µM; in the experiment with HOP-18 NSCLC, 15.9 µM and 42.2 µM.

On to `C#C/C=C/CC1OC(C(Br)CC)CC(Br)C2CC1O2` (configuration not stated), for which the TGI in the experiment with MDA-N was above 100 µM.

As for `Cc1ccc(S(=O)(=O)SCc2ccccc2)cc1`, the TGI was 21.7 µM with DLD-1 colon; 30 µM in the experiment on SNB-78 CNS; 47.4 µM with LXFL 529 NSCLC; 43.9 µM in the experiment on KM20L2 colon; above 100 µM with HOP-18 NSCLC; 95.2 µM in the experiment with XF 498 CNS. In the experiment on DMS 273 small cell lung, this molecule had a TGI above 69.5 µM.

For the molecule `CCc1ncnc2cc(OCC3CO3)c(OC)cc12` (configuration not stated), in the experiment with MDA-N, the TGI turned out to be 21.8 µM.

Regarding `C[n+]1c(/C=C/c2ccc(/C=N/NC(=O)c3ccc(C(=O)N/N=C/c4ccc(/C=C/c5cn6ccccc6[n+]5C)cc4)cc3)cc2)cn2ccccc21`, the TGI in the experiment with MDA-N is above 100 µM.

`Cc1cc(NS(=O)(=O)c2ccc(NC(=O)COC(=O)c3cccc4c(=O)c5ccccc5[nH]c34)cc2)no1`: the TGI in the experiment on DLD-1 colon, in the experiment on SNB-78 CNS, in the experiment with LXFL 529 NSCLC, in the experiment on KM20L2 colon, in the experiment with XF 498 CNS and in the experiment on DMS 273 small cell lung was above 100 µM throughout.

In the case of `O=C(Sc1sc(=S)sc1SC(=O)c1ccccc1)c1ccccc1`, the TGI in the experiment on SNB-78 CNS, in the experiment on LXFL 529 NSCLC, in the experiment on KM20L2 colon, in the experiment with HOP-18 NSCLC, in the experiment on XF 498 CNS and with DMS 273 small cell lung was above 100 µM each time.

`COC(=O)C(=O)C(CC(=O)Nc1cccc(C(F)(F)F)c1)C(=O)OC` (configuration not stated): the TGI in the experiment with DLD-1 colon, in the experiment on SNB-78 CNS, in the experiment on LXFL 529 NSCLC and with KM20L2 colon was above 100 µM in each case.

Turning to `NC(CO)C(=O)NCC(=O)O` (configuration not stated), the TGI in the experiment with MDA-N is above 100 µM.

With `COc1cc2c(cc1OC)[C@@H]([C@H](O)c1ccccc1)NCC2`, the TGI with RXF-631 renal, in the experiment with DLD-1 colon, in the experiment on SNB-78 CNS, with LXFL 529 NSCLC, in the experiment on KM20L2 colon and with HOP-18 NSCLC was above 100 µM in each case. The TGI with XF 498 CNS and with DMS 273 small cell lung was above 100 µM throughout.

With `CCN(CC)CCCNc1[nH]ncc2c(C)c3nc4ccccc4c3cc12`, in the experiment with MDA-N, the GI50 was 1.19 µM; the TGI is 2.39 µM and 3.99 µM.

With `CCN(CC)CCC(=O)/C=C/c1ccc(C)cc1`, the TGI was found to be 35.1 µM with RXF-631 renal; 21.9 µM with DLD-1 colon; 79.3 µM with SNB-78 CNS; 20.6 µM in the experiment on LXFL 529 NSCLC; 30 µM in the experiment with KM20L2 colon; 31.5 µM in the experiment with HOP-18 NSCLC. The TGI in the experiment with XF 498 CNS stood at 25.1 µM; in the experiment with DMS 273 small cell lung it was 25.5 µM.

Consider `Clc1ccc(C2=NOC3C4CCC(C4)C23)cc1` (configuration not stated), for which the TGI with DLD-1 colon, in the experiment with SNB-78 CNS, in the experiment with LXFL 529 NSCLC, with HOP-18 NSCLC and with DMS 273 small cell lung was above 100 µM each time.

In the case of `CCOP(=O)(CC(=O)C1=C(O)C(CCCCNC(=O)OC(C)(C)C)N(Cc2ccccc2)C1=O)OCC` (configuration not stated), the TGI in the experiment on DLD-1 colon, with LXFL 529 NSCLC, with KM20L2 colon, with HOP-18 NSCLC and in the experiment on DMS 273 small cell lung was above 100 µM in each case.

For the molecule `CC(C)(C)N=CN(C=C(c1ccccc1)c1ccccc1)C1CCCCC1`, the TGI in the experiment with DLD-1 colon is above 100 µM; in the experiment with SNB-78 CNS, above 100 µM; in the experiment on KM20L2 colon, 46.7 µM; with HOP-18 NSCLC, above 100 µM; in the experiment with XF 498 CNS, 56.8 µM; with DMS 273 small cell lung it was above 100 µM.

Take `O=C1N[C@H]2[C@H](O)[C@H](O)[C@@H](O)[C@H](O)[C@@H]2c2cc3c(c(O)c21)OCO3`: the GI50 in the experiment on RXF-631 renal was 0.288 µM; with DLD-1 colon it was 0.282 µM and 1.94 µM; with SNB-78 CNS, 0.248 µM and 2.04 µM; with LXFL 529 NSCLC, 0.248 µM; in the experiment with MDA-N, 0.025 µM; in the experiment on KM20L2 colon, 0.35 µM and 1.76 µM. For the same molecule, the GI50 was 0.377 µM and 1.99 µM with HOP-18 NSCLC; 0.25 µM and 1.24 µM with XF 498 CNS; 3.09 µM with DMS 273 small cell lung. The TGI with RXF-631 renal was 4.33 µM; in the experiment with DLD-1 colon, 0.422 µM; in the experiment on SN12K1 renal it was 0.36 µM; in the experiment on LXFL 529 NSCLC, 4.13 µM; in the experiment on MDA-N, 0.185 µM and 0.128 µM; in the experiment on KM20L2 colon it was 3.06 µM. The TGI in the experiment with HOP-18 NSCLC was found to be 0.653 µM; with DMS 273 small cell lung, 0.466 µM.

These data come from PubChem BioAssay (NCI).
